Experimental data: US10188665B2, “Ocular therapy using glucocorticoid derivatives selectively penetrating posterior segment tissues” (Allergan, Inc., priority 2005, dated 2019)

Key:
[1] = system: VEGF-induced BRB breakdown (retinal leakage); assay: VEGF-induced blood retinal barrier (BRB) breakdown, scanning ocular fluorophotometry of fluorescein leakage; format: in vivo, rabbit; settings: for Inhibition of VEGF-induced BRB breakdown (fluorescein leakage into posterior segment): rabbit eye, 1 mg (100 μl of 10 mg/ml suspension) intravitreal, then intravitreal VEGF, read 48 h later; for Block of VEGF-induced BRB breakdown (retinal leakage): corticosteroid administered systemically or intravitreally
Method: (§1) Recombinant vascular endothelial growth factor (VEGF) was obtained from a supplier (R&D Systems). Female Dutch Belt rabbits were anaesthetized with isoflurane inhalation and topical 0.5% proparacaine hydrochloride, and intravitreal injection of one eye with 500 ng VEGF in sterile phosphate buffered saline (PBS) containing 0.1% bovine serum albumin was performed using a 28 guage ½ inch needle. The other eye is given the same volume of the vehicle, without the VEGF.
(§2) The extent of VEGF-induced BRB and BAB breakdown of the blood retinal barrier and the blood aqueous barrier was measured by scanning ocular fluorophotemetry (Fluorotron Master, Ocumetrics Inc.); at various times following intravitreal injection. In this model a fluorescent label is administered intravenously, following by determination of the amount of fluorescenin in the anterior and posterior segment and an indication of iridial and retinal leakage, respectively.
(§3) Sodium fluorescein in 1 ml saline was injected via the marginal ear vein at a concentration of 50 mg/kg, and ocular fluorescein levels in the vitreoretinal chamber and the anterior chamber was determined 50 minutes later.
(§4) Ten milligrams of each compound is added to 1 ml of sterile phosphate-buffered saline (PBS; ph 7.4). At day 0, 100 ml of a 10 mg/ml suspension of each steroid is injected into the vitreous of a rabbit eye. The PBS vehicle is injected into the other eye. VEGF is then injected at a pre-determined time (one month) thereafter, and BRB and BAB breakdown were measured by scanning ocular fluorophotometry 48 hrs later as described in Edelman et al., EXP.

[2] = Treatment of cystic macular edema with a GD implant (Example 4); format: in vivo, human
Method: A person diagnosed with cystic macular edema treated by administration of a biodegradable drug delivery system administered to each eye of the patient. […] A similar implant is administered subconjunctivally to the patient's right eye. […] No increase in intraocular pressure is seen one week after administration.

[3] = Treatment of wet ARMD with a GD composition (Example 5); format: in vivo, human; settings: person, intravitreal 100 μl hyaluronic acid solution with about 1000 μg crystals; within one month
Method: A person with wet age-related macular degeneration is treated with an intravitreal injection of 100 μl of a hyaluronic acid solution containing about 1000 μg of fluticasone propionate crystals in suspension.

[4] = system: VEGF-induced BAB breakdown (iris leakage); assay: VEGF-induced blood aqueous barrier (BAB) breakdown, scanning ocular fluorophotometry of fluorescein leakage; format: in vivo, rabbit; settings: for Inhibition of VEGF-induced BAB breakdown (fluorescein leakage into anterior segment): rabbit eye, 1 mg (100 μl of 10 mg/ml suspension) intravitreal, then intravitreal VEGF, read 48 h later; for Block of VEGF-induced BAB breakdown (iris leakage): corticosteroid administered systemically or intravitreally
Method: as §1, §2, §3, §4

[5] = rabbit, 500 ng VEGF intravitreal, 48 h, 50 min after i.v. fluorescein

Molecule | Inhibition of VEGF-induced BRB breakdown (fluorescein leakage into posterior segment) [1] | Block of VEGF-induced BRB breakdown (retinal leakage) ([1]; rabbit) | Inhibition of VEGF-induced BAB breakdown (fluorescein leakage into anterior segment) [4] | Block of VEGF-induced BAB breakdown (iris leakage) ([4]; rabbit) | further results
CCC(=O)OCC(=O)[C@@]1(OC(=O)CC)[C@@H](C)C[C@H]2[C@@H]3CCC4=CC(=O)C=C[C@]4(C)[C@@]3(Cl)[C@@H](O)C[C@@]21C [Beclomethasone dipropionate, beclomethasone dipropionate] | – | – | – | – | Inhibition of VEGF-induced BRB breakdown (fluorescein leakage into posterior segment) ([1]; listed as beclomethasone 17,21-dipropionate): completely blocks; Appearance of retina ([2]; person, implant of about 1000 μg PLGA and about 1000 μg drug, intravitreal left eye, subconjunctival right eye, about 3 months after surgery): appears normal; Degeneration of the optic nerve ([2]; same patient, about 3 months after surgery): appears to be reduced; Intraocular pressure ([2]; same patient, one week after administration): No increase
CCC(=O)O[C@]1(C(=O)SCF)[C@H](C)C[C@H]2[C@@H]3C[C@H](F)C4=CC(=O)C=C[C@]4(C)[C@@]3(F)[C@@H](O)C[C@@]21C [Fluticasone propionate, fluticasone propionate] | completely blocks | – | – | – | Rate of neovascularization and related inflammation [3]: acceptable reduction
CC1(C)O[C@@H]2C[C@H]3[C@@H]4CCC5=CC(=O)C=C[C@]5(C)[C@@]4(F)[C@@H](O)C[C@]3(C)[C@]2(C(=O)CO)O1 [Triamcinolone acetonide, triamcinolone acetonide] | completely inhibited | completely blocked | completely inhibited | completely blocked | –
C[C@H]1C[C@H]2[C@@H]3CCC4=CC(=O)C=C[C@]4(C)[C@@]3(Cl)[C@@H](O)C[C@]2(C)[C@@]1(O)C(=O)CO [beclomethasone] | inhibited | completely blocked | inhibited | completely blocked | –
VEGF | – | – | – | – | Increase in fluorescein contained in the vitreous versus normal untreated eyes [1, 5]: approximately 18 fold; Increase in fluorescein contained in the aqueous versus normal untreated eyes [4, 5]: approximately 6 fold
